Data published in patent US20230278972A1, “SUBSTITUTED HALOALKYL SULFONANILIDE HERBICIDES” (FMC Corporation, priority 2020, published 2023).

Experiments:
Format in all cases: in vivo
[1] = tested on: barnyardgrass (Echinochloa crus-galli); test: Test A preemergence, barnyardgrass; conditions: Preemergence; for Plant response rating, Barnyardgrass: 31 g ai/ha, visual injury, 0 to 100 scale (0 no effect, 100 complete control), approx. 10 days; for Barnyardgrass plant response rating: 125 g ai/ha, visual injury on 0 to 100 scale (0 no effect, 100 complete control), approximately 10 days
Outline: (§1)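 Postemergence ratings come from foliar sprays onto one- to two-leaf plants of 2 to 10 cm grown in loam/sand; preemergence ratings come from a directed spray onto the soil of newly seeded pots. Formulation was a surfactant-containing non-phytotoxic solvent blend.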

kochia (Bassia scoparia) [2] = test: Test A preemergence, kochia; conditions: Preemergence; for Plant response rating, Kochia: 31 g ai/ha, visual injury, 0 to 100 scale (0 no effect, 100 complete control), approx. 10 days; for Kochia plant response rating: 125 g ai/ha, visual injury on 0 to 100 scale (0 no effect, 100 complete control), approximately 10 days
Outline: as §1

[3] = tested on: ragweed (common ragweed, Ambrosia artemisiifolia); test: Test A preemergence, ragweed; conditions: Preemergence; for Plant response rating, Ragweed: 31 g ai/ha, visual injury, 0 to 100 scale (0 no effect, 100 complete control), approx. 10 days; for Ragweed plant response rating: 125 g ai/ha, visual injury on 0 to 100 scale (0 no effect, 100 complete control), approximately 10 days
Outline: as §1

[4] = tested on: Ryegrass, Italian (Italian ryegrass, Lolium multiflorum); test: Test A preemergence, Ryegrass, Italian; conditions: Preemergence; for Plant response rating, Ryegrass, Italian: 31 g ai/ha, visual injury, 0 to 100 scale (0 no effect, 100 complete control), approx. 10 days; for Ryegrass, Italian plant response rating: 125 g ai/ha, visual injury on 0 to 100 scale (0 no effect, 100 complete control), approximately 10 days
Outline: as §1

[5] = tested on: Foxtail, Giant (giant foxtail, Setaria faberi); test: Test A preemergence, Foxtail, Giant; conditions: Preemergence; for Plant response rating, Foxtail, Giant: 31 g ai/ha, visual injury, 0 to 100 scale (0 no effect, 100 complete control), approx. 10 days; for Foxtail, Giant plant response rating: 125 g ai/ha, visual injury on 0 to 100 scale (0 no effect, 100 complete control), approximately 10 days
Outline: as §1

[6] = tested on: pigweed (Amaranthus retroflexus); test: Test A preemergence, pigweed; conditions: for Plant response rating, Pigweed: 31 g ai/ha, visual injury, 0 to 100 scale (0 no effect, 100 complete control), approx. 10 days; for Pigweed plant response rating: 125 g ai/ha, visual injury on 0 to 100 scale (0 no effect, 100 complete control), approximately 10 days
Outline: (§2)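 Test chemicals, formulated in a non-phytotoxic solvent mixture with surfactant, were sprayed postemergence on plants 2 to 10 cm tall at the one- to two-leaf stage. Preemergence treatment was a directed soil spray onto freshly seeded pots. Both used a loam soil and sand blend.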

[7] = tested on: barnyardgrass (Echinochloa crus-galli); test: Test A postemergence, barnyardgrass; conditions: Postemergence, 0 to 100 scale (0 no effect, 100 complete control)
Outline: as §2

kochia (Bassia scoparia) [8] = test: Test A postemergence, kochia; conditions: Postemergence, 0 to 100 scale (0 no effect, 100 complete control)
Outline: as §1

[9] = tested on: ragweed (common ragweed, Ambrosia artemisiifolia); test: Test A postemergence, ragweed; conditions: Postemergence, 0 to 100 scale (0 no effect, 100 complete control)
Outline: as §1

[10] = tested on: Ryegrass, Italian (Italian ryegrass, Lolium multiflorum); test: Test A postemergence, Ryegrass, Italian; conditions: Postemergence, 0 to 100 scale (0 no effect, 100 complete control)
Outline: as §1

[11] = tested on: Foxtail, Giant (giant foxtail, Setaria faberi); test: Test A postemergence, Foxtail, Giant; conditions: Postemergence, 0 to 100 scale (0 no effect, 100 complete control)
Outline: as §1

[12] = tested on: pigweed (Amaranthus retroflexus); test: Test A postemergence, pigweed; conditions: Postemergence, 0 to 100 scale (0 no effect, 100 complete control)
Outline: as §1

[13] = tested on: wheat (Triticum aestivum); test: Test A postemergence, wheat; conditions: Postemergence, 0 to 100 scale (0 no effect, 100 complete control)
Outline: as §2

corn (Zea mays) = test: Test A postemergence, corn; conditions: Postemergence, 0 to 100 scale (0 no effect, 100 complete control)
Outline: as §1

[14] = tested on: blackgrass (Alopecurus myosuroides); test: Test A postemergence, blackgrass; conditions: Postemergence, 0 to 100 scale (0 no effect, 100 complete control)
Outline: as §1

[15] = tested on: galium (catchweed bedstraw, Galium aparine); test: Test A postemergence, galium; conditions: Postemergence, 0 to 100 scale (0 no effect, 100 complete control)
Outline: as §2

[16] = 125 g ai/ha, visual injury approx. 10 days

Compound | Plant response rating, Barnyardgrass [1] | Barnyardgrass plant response rating [1] | Plant response rating, Kochia (kochia (Bassia scoparia) [2]) | Kochia plant response rating (kochia (Bassia scoparia) [2]) | Plant response rating, Ragweed [3] | Ragweed plant response rating [3] | Plant response rating, Ryegrass, Italian [4] | Ryegrass, Italian plant response rating [4] | Plant response rating, Foxtail, Giant [5] | Foxtail, Giant plant response rating [5] | Plant response rating, Pigweed [6] | Pigweed plant response rating [6] | Plant response rating, Barnyardgrass ([7]; 31 g ai/ha) | Plant response rating, Barnyardgrass [7, 16] | Plant response rating, Kochia (kochia (Bassia scoparia) [8]; 31 g ai/ha) | Plant response rating, Kochia (kochia (Bassia scoparia) [8]; [16]) | Plant response rating, Ragweed ([9]; 31 g ai/ha) | Plant response rating, Ragweed [9, 16] | Plant response rating, Ryegrass, Italian ([10]; 31 g ai/ha) | Plant response rating, Ryegrass, Italian [10, 16] | further results
CO[C@@H]1CCCN(C(=O)c2cc(NS(=O)(=O)C(F)(F)F)c(C)cc2C)C1 [Compound 94] | 10 | 90 | 0 | 60 | 0 | 30 | 30 | 90 | 50 | 100 | 100 | 100 | 20 | 60 | 10 | 50 | 10 | 40 | 20 | 50 | Plant response rating, Foxtail, Giant ([11]; 31 g ai/ha): 0; Plant response rating, Foxtail, Giant [11, 16]: 30; Plant response rating, Pigweed ([12]; 31 g ai/ha): 50; Plant response rating, Pigweed [12, 16]: 80; Plant response rating, Wheat ([13]; 31 g ai/ha): 10; Plant response rating, Wheat [13, 16]: 50; Plant response rating, Corn (corn (Zea mays); 31 g ai/ha): 0; Plant response rating, Corn (corn (Zea mays); [16]): 20; Plant response rating, Blackgrass ([14]; 31 g ai/ha): 0; Plant response rating, Blackgrass [14, 16]: 20; Plant response rating, Galium ([15]; 31 g ai/ha): 70; Plant response rating, Galium [15, 16]: 90
CO[C@@H]1CCCN(C(=O)c2cc(N(S(=O)(=O)C(F)(F)F)S(=O)(=O)C(F)(F)F)c(C)cc2C)C1 [Compound 95] | 10 | 80 | 0 | 10 | 0 | 60 | 20 | 90 | 90 | 100 | 70 | 90 | 0 | 30 | 10 | 30 | 0 | 0 | 0 | 0 | Plant response rating, Foxtail, Giant ([11]; 31 g ai/ha): 0; Plant response rating, Foxtail, Giant [11, 16]: 0; Plant response rating, Pigweed ([12]; 31 g ai/ha): 40; Plant response rating, Pigweed [12, 16]: 80; Plant response rating, Wheat ([13]; 31 g ai/ha): 0; Plant response rating, Wheat [13, 16]: 10; Plant response rating, Corn (corn (Zea mays); 31 g ai/ha): 0; Plant response rating, Corn (corn (Zea mays); [16]): 20; Plant response rating, Blackgrass ([14]; 31 g ai/ha): 0; Plant response rating, Blackgrass [14, 16]: 0; Plant response rating, Galium ([15]; 31 g ai/ha): 40; Plant response rating, Galium [15, 16]: 80
